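Exposure lasted 48 hours, with cells grown in 96-well plates and compounds tested at five concentrations. Definition used: TGI = concentration required for complete inhibition of growth.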
Columns and labels:
Assay in all cases: DTP human tumour cell line panel, 48 h
[1] = test system: SR leukemia
[2] = test system: ACHN renal
[3] = test system: SNB-75 CNS
[4] = test system: HL-60(TB) leukemia
[5] = test system: HCT-116 colon
[6] = test system: OVCAR-5 ovarian
[7] = test system: UACC-257 melanoma
[8] = test system: LOX IMVI melanoma
[9] = test system: DU-145 prostate
[10] = test system: K-562 leukemia
[11] = test system: MDA-MB-231 breast
[12] = test system: HCT-15 colon
[13] = test system: NCI-H23 lung
[14] = test system: CAKI-1 renal
[15] = test system: MALME-3M melanoma
[16] = test system: SK-MEL-28 melanoma
[17] = test system: KM12 colon
[18] = test system: MOLT-4 leukemia
[19] = test system: OVCAR-8 ovarian
[20] = test system: PC-3 prostate
[21] = test system: MCF7 breast
[22] = test system: NCI/ADR-RES ovarian
[23] = test system: HCC-2998 colon
[24] = test system: SK-MEL-5 melanoma
[25] = test system: SK-OV-3 ovarian
[26] = test system: SF-539 CNS
[27] = test system: HOP-62 NSCLC
[28] = test system: COLO 205 colon
[29] = test system: MDA-N
[30] = test system: SNB-19 CNS
[31] = test system: NCI-H522 lung
[32] = test system: HT29 colon
[33] = test system: SW-620 colon
[34] = test system: BT-549 breast
[35] = test system: SF-268 CNS
[36] = test system: TK-10 renal
[37] = test system: SF-295 CNS
[38] = test system: M14 melanoma
[39] = test system: A549 NSCLC
[40] = test system: OVCAR-4 ovarian
[41] = test system: HOP-92 NSCLC
[42] = test system: HS 578T breast
[43] = test system: RPMI-8226 leukemia
[44] = test system: OVCAR-3 ovarian
[45] = test system: MDA-MB-435
[46] = test system: U251 CNS
[47] = test system: 786-0 renal
[48] = test system: SN12C renal
[49] = test system: IGROV1 ovarian
[50] = test system: UO-31 renal
[51] = test system: UACC-62 melanoma
[52] = test system: RXF 393 renal
[53] = test system: NCI-H226 lung
[54] = test system: A498 renal
[55] = test system: NCI-H460 lung
[56] = test system: EKVX NSCLC
[57] = test system: CCRF-CEM leukemia
[58] = test system: SK-MEL-2 melanoma

With `OCCN1c2ccccc2Sc2ccccc21` the TGI [1] was greater than 10 µM, the TGI [2] was greater than 10 µM and the TGI [3] was greater than 10 µM. It also gave a TGI [4] greater than 10 µM, a TGI [5] greater than 10 µM and a TGI [6] greater than 10 µM. For the same molecule, the TGI [7] was greater than 10 µM, the TGI [8] was greater than 10 µM and the TGI [9] was greater than 10 µM. For the same molecule, the TGI [10] was greater than 10 µM, the TGI [11] was greater than 10 µM and the TGI [12] was greater than 10 µM. For the same molecule, the TGI [13] was greater than 10 µM, the TGI [14] was greater than 10 µM and the TGI [15] was greater than 10 µM. For the same molecule, the TGI [16] was greater than 10 µM, the TGI [17] was greater than 10 µM and the TGI [18] was greater than 10 µM. For the same molecule, the TGI [19] was greater than 10 µM, the TGI [20] was greater than 10 µM and the TGI [21] was greater than 10 µM. The TGI [22] was greater than 10 µM, the TGI [23] was greater than 10 µM and the TGI [24] was greater than 10 µM. The TGI [25] was greater than 10 µM, the TGI [26] was greater than 10 µM and the TGI [27] was greater than 10 µM. It also gave a TGI [28] greater than 10 µM, a TGI [29] greater than 10 µM and a TGI [30] greater than 10 µM. The TGI [31] was greater than 10 µM, the TGI [32] was greater than 10 µM and the TGI [33] was greater than 10 µM. For the same molecule, the TGI [34] was greater than 10 µM, the TGI [35] was greater than 10 µM and the TGI [36] was greater than 10 µM. The TGI [37] was greater than 10 µM, the TGI [38] was greater than 10 µM and the TGI [39] was greater than 10 µM. It also gave a TGI [40] greater than 10 µM, a TGI [41] greater than 10 µM and a TGI [42] greater than 10 µM. The TGI [43] was greater than 10 µM, the TGI [44] was greater than 10 µM and the TGI [45] was greater than 10 µM. For the same molecule, the TGI [46] was greater than 10 µM, the TGI [47] was greater than 10 µM and the TGI [48] was greater than 10 µM.
In the case of `O=C(N=Nc1c(O)[nH]c2c(Cl)cc(Cl)cc12)c1ccccc1O`, the TGI [1] is reported as 23.7 µM, the TGI [2] is reported as 25.8 µM and the TGI [49] is reported as 26.9 µM. For the same molecule, the TGI [3] was 22.8 µM, the TGI [4] was 43.4 µM and the TGI [5] was 27.3 µM. It also gave a TGI [6] of 32.4 µM, a TGI [7] of 33.2 µM and a TGI [8] of 28 µM. For the same molecule, the TGI [50] was 24.3 µM, the TGI [51] was 24.8 µM and the TGI [11] was 30.1 µM. For the same molecule, the TGI [12] was 29.2 µM, the TGI [13] was 33.1 µM and the TGI [14] was 31.1 µM. The TGI [15] was 27.1 µM, the TGI [16] was 30 µM and the TGI [52] was 25.3 µM. The TGI [17] was 29.5 µM, the TGI [18] was 31 µM and the TGI [19] was 25.2 µM. It also gave a TGI [20] of 29 µM, a TGI [21] of 41 µM and a TGI [22] of 26.3 µM. For the same molecule, the TGI [53] was 29.4 µM, the TGI [23] was 31.1 µM and the TGI [24] was 28.7 µM. For the same molecule, the TGI [54] was 30.8 µM, the TGI [25] was 30.6 µM and the TGI [26] was 29.6 µM. It also gave a TGI [27] of 29.2 µM, a TGI [28] of 38.5 µM and a TGI [29] of 28.1 µM. The TGI [55] was 27.6 µM, the TGI [56] was 26.3 µM and the TGI [30] was 27.8 µM. For the same molecule, the TGI [57] was 46.9 µM, the TGI [58] was 26.1 µM and the TGI [32] was 34.8 µM. The TGI [33] was 34.5 µM, the TGI [34] was 27.7 µM and the TGI [36] was 29.3 µM. It also gave a TGI [37] of 28.4 µM, a TGI [38] of 30.3 µM and a TGI [39] of 27.4 µM. It also gave a TGI [40] of 26.9 µM, a TGI [41] of 28.6 µM and a TGI [42] of 29 µM. For the same molecule, the TGI [44] was 25.1 µM, the TGI [45] was 26.9 µM and the TGI [46] was 21 µM. For the same molecule, the TGI [47] was 26.3 µM and the TGI [48] was 30.5 µM.
`CC(C)C1=C(O)C2=C(C(=O)C1=O)C1(C)CCCC(C)(C)C1CC2O` (stereo unspecified) was tested, and the TGI [1] was 58.4 µM, the TGI [2] was 13.2 µM and the TGI [49] was 77.7 µM. It also gave a TGI [3] greater than 100 µM, a TGI [4] of 30.4 µM and a TGI [5] greater than 100 µM. It also gave a TGI [6] of 43.2 µM, a TGI [7] of 31.9 µM and a TGI [8] greater than 100 µM. The TGI [50] was 17.9 µM, the TGI [51] was 8.66 µM and the TGI [9] was greater than 100 µM. It also gave a TGI [10] greater than 100 µM, a TGI [11] of 9.46 µM and a TGI [12] of 13.8 µM. For the same molecule, the TGI [13] was 3.93 µM, the TGI [14] was 24.1 µM and the TGI [15] was 16.6 µM. The TGI [16] was 38.5 µM, the TGI [52] was 5.89 µM and the TGI [17] was 19 µM. For the same molecule, the TGI [18] was greater than 100 µM, the TGI [19] was 90.7 µM and the TGI [20] was 31.7 µM. The TGI [21] was 22.8 µM, the TGI [23] was 12 µM and the TGI [24] was 5.23 µM. It also gave a TGI [54] of 38.6 µM, a TGI [25] of 45.5 µM and a TGI [26] of 52.7 µM. It also gave a TGI [27] of 21.1 µM, a TGI [28] greater than 100 µM and a TGI [29] of 4.76 µM. The TGI [55] was 12.8 µM, the TGI [56] was 49.7 µM and the TGI [30] was 21.4 µM. For the same molecule, the TGI [57] was 23.6 µM, the TGI [58] was 11 µM and the TGI [31] was 53.7 µM. For the same molecule, the TGI [32] was 62 µM, the TGI [33] was 63.2 µM and the TGI [34] was 25.9 µM. It also gave a TGI [35] greater than 100 µM, a TGI [36] greater than 100 µM and a TGI [37] of 64.4 µM. For the same molecule, the TGI [38] was 15.3 µM, the TGI [39] was 34.8 µM and the TGI [40] was 82.6 µM. The TGI [41] was 13.3 µM, the TGI [42] was greater than 100 µM and the TGI [44] was 29 µM. It also gave a TGI [45] of 13.6 µM, a TGI [46] greater than 100 µM and a TGI [47] greater than 100 µM. The TGI [48] was 28 µM.

Reference: PubChem BioAssay (NCI)
